Measurements reported in US20240342126A1, “HALLUCINOGEN-FATTY ACID COMBINATION” (Mindset Pharma Inc., priority 2021, published 2024).
Entries after “also recorded” stand apart in the source; their conditions may differ.

What was measured:
C57BL/6J mice = assay: Mouse head twitch experiments; format: in vivo; conditions: for head twitch response of combination with linoleic acid vs test compound alone: equimolar dose of linoleic acid, SC; for effect on test compound-induced head twitches: M100907 0.5 mg/kg IP pretreatment
Procedure: Male, C57BL/6J mice (body weight range 20-30 g) were dosed with the appropriate dose(s) of test compound, or combination of test compounds, and following pre-treatment, the animals were placed in individual observation chambers. Animals were visually assessed for the incidence head twitches continuously over a 1 hr period. Head twitches were defined as a rapid jerk of the head which was not elicited by an external tactile stimulus (Corne S J, Pickering R W (1967) Psychopharmacologia 11 (1): 65-78). Each head twitch was individually counted by a trained observer, and the data expressed as the mean±SEM of 4-10 mice per group. In addition to the total number of head twitches recorded over the 1 hr observation period, head twitches were also scored according to each specific 10 min time bin within the 1 hr observation period (i.e. 0-10 min, 10-20 min, 20-30 min, etc).
Two types of experiments were conducted. In one, the effect of linoleic acid in combination with a test compound (psilocybin or 1-4) was studied. In these experiments, both test compounds, or saline control was injected subcutaneously (SC) 1 min prior to testing. […] In these experiments, M100907 (0.5 mg/kg IP) was injected 30 min prior to a single dose of test compound (i.e. psilocybin or I-4). […] 1 min following SC administration of the test compound, the mice were placed in the observation chambers for measurement of head twitch response.

[1] = Pharmacokinetics in plasma and CSF after i.n. or s.c. administration of 5-MeO-DMT formulations; conditions: Sprague-Dawley, rat, plasma, iv, 1 mg/kg
human 5-HT2A = human 5-HT2A (Homo sapiens, UniProt P28223); conditions: read-out: binding affinity 5-HT2A; cited from earlier work
Chain of human 5-HT2A (P28223 whole entry): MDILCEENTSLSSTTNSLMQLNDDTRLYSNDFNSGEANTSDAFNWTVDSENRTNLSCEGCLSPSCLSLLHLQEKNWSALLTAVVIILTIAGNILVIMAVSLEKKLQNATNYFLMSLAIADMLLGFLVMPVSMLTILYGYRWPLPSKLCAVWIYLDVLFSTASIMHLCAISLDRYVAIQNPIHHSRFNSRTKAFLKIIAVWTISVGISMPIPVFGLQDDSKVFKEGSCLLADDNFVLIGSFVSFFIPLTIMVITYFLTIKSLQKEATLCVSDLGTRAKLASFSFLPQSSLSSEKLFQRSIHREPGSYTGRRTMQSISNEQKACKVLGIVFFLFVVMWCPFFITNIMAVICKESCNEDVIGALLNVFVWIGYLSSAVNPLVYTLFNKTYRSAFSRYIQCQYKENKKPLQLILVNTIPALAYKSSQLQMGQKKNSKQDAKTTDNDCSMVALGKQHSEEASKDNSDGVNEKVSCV

[2H]C([2H])([2H])N(C([2H])([2H])[2H])C([2H])([2H])C([2H])([2H])c1c[nH]c2cccc(O)c12 [Compound I-4, 3-(2-(bis(methyl-d3)amino)ethyl-1,1,2,2-d4)-1H-indol-4-ol]
head twitches over 1 hr (mean±SEM) (C57BL/6J mice; 0.3 mg/kg SC + linoleic acid at […] SC): 7.8±0.6
head twitches over 1 hr (mean±SEM) (C57BL/6J mice; 0.3 mg/kg SC + vehicle): 3.3±0.8
head twitch response of combination with linoleic acid vs test compound alone (C57BL/6J mice): more head twitches
head twitch response of combination with linoleic acid vs test compound alone (C57BL/6J mice; listed as 1-4): greater head twitch response

COc1cccc([C@H](O)C2CCN(CCc3ccc(F)cc3)CC2)c1OC [Compound M100907, reference compound]
effect on test compound-induced head twitches (C57BL/6J mice; head twitches induced by I-4 6.2 mg/kg SC): completely blocked
effect on test compound-induced head twitches (C57BL/6J mice; head twitches induced by psilocybin 3 mg/kg SC): completely blocked

COc1ccc2[nH]cc(CCN(C)C)c2c1 [Compound 5-MeO-DMT, 5-methoxy-N,N-dimethyltryptamine]
AUC(0-inf) [1]: 35.3 ng·h/mL

CN(C)CCc1c[nH]c2ccccc12 [DMT, N,N-dimethyltryptamine]
Ki (human 5-HT2A): 237 nM

CCCCC/C=C\C/C=C\CCCCCCCC(=O)O [linoleic acid]
head twitches over 1 hr (mean±SEM) (C57BL/6J mice; linoleic acid alone 10 mg/kg SC): 1.0±0.7
head twitches relative to vehicle (C57BL/6J mice; linoleic acid alone 0.1-10 mg/kg SC): did not induce head twitches to a significant degree; also recorded: no significant effect
